Entries after “also recorded” stand apart in the source; their conditions may differ.
What was measured:
dogs = assay: Toxicological studies, dogs; type: in vivo
primates = assay: Toxicological studies, primates; type: in vivo
[1] = test system: L-dopa-treated unilateral 6-hydroxydopamine-lesioned rats; assay: L-dopa-induced AIMs (dyskinesia) in unilateral 6-OHDA-lesioned rats; type: in vivo, rat
Protocol: The subtype selective NNR agonist Compound A, stimulates […] and to a lesser extent α6* NNRs. […] Experiments were performed using male Sprague-Dawley rats that were unilaterally lesioned with 6-OHDA (Sigma Chemical Co., St. Louis, Mo.) as previously described (Cenci et al., 1998; Cenci et al., 2002). 6-OHDA was dissolved in 0.02% ascorbic acid/saline at a concentration of 3 μg/μl. Compound A was systemically infused via osmotic minipumps (Alzet model 2006; Durect Corporation, Cupertino, Calif., USA), which delivered drug at a rate of 3.6 μl/day for 6 wk. […] Pumps were pre-filled with either sterilized water or Compound A base in water (pH 7.0) to provide the required doses (0.03, 0.1, 0.3 mg/kg/d). The minipumps were subcutaneously implanted along the dorsal aspect of the neck between the shoulder blades, according to the manufacturer's instruction, under isofluorane anesthesia. After implantation, rats were administered buprenorphine (0.02 mg/kg sc) for post-operative pain. Two weeks after initiation of drug treatment, the rats were administered single daily subcutaneous injections of 6 to 8 mg/kg L-dopa methyl ester plus 15 mg/kg benserazide. Two μl aliquots were stereotaxically injected at each of two sites for a total of 8 to 12 μg into the right ascending dopamine fiber bundle. Infusion of 6-OHDA into the target area was over a 2-min period, with the cannula maintained at the site of injection for a further 2 min. Two to three weeks after lesioning, rats were tested for drug-induced rotational behavior in an automated behavioral measurement apparatus (ROTOMAX, AccuScan Instruments Inc. Columbus, Ohio, USA). Each rat was placed in a cylindrical glass chamber for 30 min for acclimatization, after which 4.0 mg/kg amphetamine (Sigma Chemical Co., St. Louis, Mo.) was administered intraperitoneally (ip). Amphetamine-induced rotational behavior was monitored for 90 min, with rats making at least 200 ipsilateral turns/90 min used for further study.
L-dopa-induced AIMs were determined as indicated. See FIG. 1 for experiment dosing and testing regimen. Behavioral testing was done in the morning starting between 9 and 10 AM. Three different AIMs subtypes were measured including (1) axial dystonia, contralateral twisted posturing of the neck and upper body; (2) abnormal orolingual movements, stereotyped jaw movements and contralateral tongue protrusion; and (3) abnormal forelimb movements, repetitive rhythmic jerks or dystonic posturing of the contralateral forelimb and/or grabbing movements of the contralateral paw. See, for example, Carta M, Lindgren HS, Lundblad M, Stancampiano R, Fadda F, Cenci M A (2006), Role of Striatal L-DOPA in the Production of Dyskinesia in 6-hydroxydopamine Lesioned Rats. J Neurochem 96:1718-172; Cenci M A, Lee C S, Bjorklund A (1998) L-DOPA-induced dyskinesia in the rat is associated with striatal overexpression of prodynorphin- and glutamic acid decarboxylase mRNA; Eur J Neurosci 10:2694-2706; Cenci M A, Whishaw I Q, Schallert T (2002) Animal models of neurological deficits: how relevant is the rat? Nat Rev Neurosci 3:574-579; Bordia, T., Campos, C., Huang, L. Z. & Quik, M., “Continuous And Intermittent Nicotine Treatment Reduces L-3,4-Dihydroxyphenylalanine (L-Dopa)-Induced Dyskinesias In A Rat Model Of Parkinson's Disease,” J Pharmacol Exp Ther 327: 239-47 (2008)). Rats were scored on a scale from 0 to 4 for each of these three AIM subtypes as follows: 1=occasional; 2=frequent; 3=continuous but interrupted by sensory distraction; and 4=continuous, severe, not interrupted by sensory distraction. Animals were evaluated for AIMs for an initial 20 min baseline period, as well as for 3 h following L-dopa injection by a blinded rater. Assessment of the different subtypes of AIMs was done over 20 min sessions, thus yielding a total of 9 sessions of testing per animals. The maximum possible score for each animal was thus 108 (maximum score per session=12; number of sessions over 3 h=9). […]

rats = assay: Safety studies in rats; type: in vivo, rat
Parkinsonian rats = assay: Limb use asymmetry (cylinder) test of motor function in Parkinsonian rats; type: in vivo, rat
Protocol: Because drugs that reduce AIMs may worsen Parkinsonism, the effect of Compound A (PD1) was also tested on motor function in Parkinsonian rats (see FIG. 3) using the limb use asymmetry or cylinder test. The cylinder test was used as an index of behavioral function after unilateral nigrostriatal damage, with explorative activity analyzed as previously described. Animals were placed in a transparent cylinder (20 cm diameter×30 cm height) or in a transparent cage and evaluated over a 5 min period. A mirror was placed behind the cylinder/cage to allow the raters to view forelimb movements when the rat was turned away from the rater. Wall exploration was expressed in terms of the percentage of use of the impaired forelimb (contralateral to the lesion) compared to the total number of limb use movements. Two raters, one blinded to the treatment status of the rats, performed the ratings. Correlation analyses yielded a high inter-rater reliability (R=0.99). […] The rat is placed in a transparent cylinder, which results in vertical exploration and the percentage of contact of the unimpaired and impaired forelimb against the cylinder evaluated (Cenci, M. A. and M. Lundblad, “Post-Versus Presynaptic Plasticity In L-Dopa-lnduced Dyskinesia,”. J Neurochem, 99: 381-392 (2006); Tillerson, J. L. et al., “Forced Limb-Use Effects On The Behavioral And Neurochemical Effects Of 6-Hydroxydopamine,” J Neurosci 21, 4427-35 (2001); and Meredith, G. E. & U. J. Kang, “Behavioral Models Of Parkinson's Disease In Rodents: A New Look At An Old Problem,” Mov Disord, 21: 1595-606 (2006).

rodents = assay: Toxicological studies, rodents; type: in vivo
[2] = test system: Parkinsonian nonhuman primates; conditions: cited from earlier work
Parkinsonian rodents = conditions: cited from earlier work
[3] = 0.1 or 0.3 mg/kg/d via subcutaneous minipump

SMILES | incidence of peripheral side effects (dogs) | incidence of peripheral side effects (primates) | total AIMs ([1]; 0.1 mg/kg/day, second and third assessments) | total AIMs ([1]; 0.3 mg/kg/day, fourth assessment) | L-dopa-induced AIMs, total or some subset (axial, oral and/or forelimb) ([1]; 0.1 and 0.3 mg/kg/day, across multiple assessments, P<0.05 vs control (FIG. 2)) | reduction in oral versus axial AIMs [1, 3] | reduction of total L-dopa-induced AIMs [1, 3] | total AIMs ([1]; first and fifth AIMs assessments) | adverse effects (body weight, body temperature, grooming, urination, defecation, secretion) ([1]; minipump treatment in the AIMs study) | detrimental effects (rats; acute free base oral doses up to 30 mg/kg) | behavioral sensitization (rats; rats) | locomotor activity (rats; rats) | Parkinsonism / motor function, trend (Parkinsonian rats; lesioned rats, either dose tested) | baseline motor function (Parkinsonian rats; off L-dopa, either dose tested, across the experiment) | enhanced limb use with L-dopa treatment (Parkinsonian rats; on L-dopa, either dose tested, across the experiment) | parkinsonism, asymmetric forelimb or cylinder test (FIG. 3) (Parkinsonian rats; two doses, Off or On L-dopa, several occasions) | incidence of peripheral side effects (rodents) | reduction of L-dopa-induced dyskinetic-like movements [2] | reduction of L-dopa-induced dyskinetic-like movements (Parkinsonian rodents; Parkinsonian rodents) | L-dopa-induced AIMs (Parkinsonian rodents; rats, given continuously via osmotic minipump)
C(=C\[C@H]1CCNC1)/c1cncnc1 [Compound A, (R)-5-((E)-2-pyrrolidin-3-ylvinyl)pyrimidine] | low incidence of peripheral side effects | low incidence of peripheral side effects | significant decline in total AIMs | significant decline in total AIMs | reduce L-dopa-induced AIMs; also recorded: significant reduction | more pronounced reduction in oral than axial AIMs | ~25% | trends for declines in total AIMs | no detectable adverse effects | not associated with any significant detrimental effects | no behavioral sensitization | did not increase locomotor activity | small trend for improvement; also recorded: trend for improving Parkinsonism | does not worsen baseline motor function | nor does it worsen the enhanced limb use | do not worsen parkinsonism | low incidence of peripheral side effects | – | – | –
CN1CCCC1c1cccnc1 (centres unmarked) [nicotine] | – | – | – | – | – | – | – | – | – | – | – | – | – | – | – | – | – | ~50% | ~50% | most effectively reduced L-dopa-induced AIMs
